Laboratory results: patent publication US10781472B2, “Systems and methods for determining cyclic nucleotide concentration and related pathway activation” (PROMEGA CORPORATION, priority 2005, dated 2020)

Experiments:
[1] = molecular target: T1, Holoenzyme-R-II α protein kinase A (Homo sapiens, UniProt P13861); assay: Side by side titration of cAMP and cGMP for activation of PKA; format: biochemical; conditions: FIG. 6
T1 construct: purchased BIAFFIN GmbH & Co., Kassel, Germany
Method: Two-fold serial dilutions of cAMP and cGMP (initial concentration of both 40 μM) were made in Stop Buffer without ATP and IBMX, but supplemented with 2 μM ATP. Twenty-five μl of the dilutions were aliquoted into white 96-well plates, followed by the addition of 25 μl of a PKA/substrate reagent containing 100 ng/well Holoenzyme-R-II α protein kinase A, 20 μM Kemptide, 40 mM Tris HCl pH 7.5, 20 mM MgCl2, and 0.1 mg/ml BSA. The reactions were allowed to incubate for 20 min. at room temperature, and 50 μl of Kinase-Glo™ Reagent was added followed by an additional 10 min. incubation. Luminescence was measured 10 min. after addition of the Kinase-Glo™ Reagent and output was recorded as RLUs (n=2) and plotted against cyclic nucleotide (cNMP) concentration using GraphPad Prism® Software Version 4.0.

phosphodiesterase PDE V = phosphodiesterase PDE V (Homo sapiens, UniProt O76074); assay: cGMP-PDE (PDE V) activity in the presence of inhibitor, PKA/Kinase-Glo luminescence; format: biochemical; conditions: 15 U PDE V, cGMP substrate, 30 min (FIG. 7B)
Method: A two-fold serial dilution of Zaprinast (20 μM) was made in Stop Buffer without IBMX and ATP, supplemented with 10 μM cGMP. An enzyme solution containing PDE V was also made so that every 12.5 μl of the enzyme solution contained 15 U (Stop Buffer without IBMX and ATP) of the enzyme. An aliquot (12.5 μl) of each dilution was added to the reaction wells and an equal amount of the phosphodiesterase PDEV enzyme solution was added to start the reaction. The plate was incubated for 30 min. at room temperature, followed by addition of 12.5 μl of Stop Buffer supplemented with 1.5 mM IBMX and 4 μM ATP to stop the reaction. An equal volume of a PKA/substrate reagent containing 100 ng/well Holoenzyme-R-II α protein kinase A, 40 μM Kemptide, 40 mM Tris HCl pH 7.5, 20 mM MgCl2, and 0.1 mg/ml BSA was added to each well, the plate was incubated for an additional 20 min., and 50 μl of Kinase-Glo™ Reagent was added.

[2] = molecular target: dopamine receptor D1 (DRD1) (Homo sapiens, UniProt P21728); conditions: 1 μg DRD1 plasma membranes, 15 min induction (FIG. 10)
dopamine receptor D1 (DRD1), sequence (P21728 whole entry): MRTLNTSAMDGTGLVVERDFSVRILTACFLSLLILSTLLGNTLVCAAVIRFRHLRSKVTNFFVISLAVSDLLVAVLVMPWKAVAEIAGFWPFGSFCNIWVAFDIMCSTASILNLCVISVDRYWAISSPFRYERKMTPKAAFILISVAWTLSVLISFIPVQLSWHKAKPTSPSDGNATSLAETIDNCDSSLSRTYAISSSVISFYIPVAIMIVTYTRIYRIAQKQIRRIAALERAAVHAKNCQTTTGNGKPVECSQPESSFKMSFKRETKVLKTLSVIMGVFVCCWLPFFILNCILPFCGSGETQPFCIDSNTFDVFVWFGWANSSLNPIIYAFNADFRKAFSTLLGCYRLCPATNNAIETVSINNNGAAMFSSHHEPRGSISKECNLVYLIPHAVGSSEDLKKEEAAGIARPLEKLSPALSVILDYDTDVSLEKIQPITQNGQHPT
Method: Plasma membranes (1 μg of protein in 25 μl of Stimulation Buffer) and 10 μM GDP were added to the wells of a 96-well plate and incubated at room temperature for 10 minutes. Twenty microliters of each compound dilution was added to specific wells. Induction was carried out for 15 minutes at room temperature followed by addition of 40 μl of PKA/Substrate Reagent. The reactions were allowed to incubate for an additional 20 minutes at room temperature followed by addition of 80 μl of Kinase-Glo™ Reagent. Luminescence was read 10 minutes after addition of the Kinase-Glo™ Reagent and output was recorded as relative light units (RLU) and plotted against forskolin concentration using GraphPad Prism® Software Version 4.0.

T1 sequence (P13861 whole entry): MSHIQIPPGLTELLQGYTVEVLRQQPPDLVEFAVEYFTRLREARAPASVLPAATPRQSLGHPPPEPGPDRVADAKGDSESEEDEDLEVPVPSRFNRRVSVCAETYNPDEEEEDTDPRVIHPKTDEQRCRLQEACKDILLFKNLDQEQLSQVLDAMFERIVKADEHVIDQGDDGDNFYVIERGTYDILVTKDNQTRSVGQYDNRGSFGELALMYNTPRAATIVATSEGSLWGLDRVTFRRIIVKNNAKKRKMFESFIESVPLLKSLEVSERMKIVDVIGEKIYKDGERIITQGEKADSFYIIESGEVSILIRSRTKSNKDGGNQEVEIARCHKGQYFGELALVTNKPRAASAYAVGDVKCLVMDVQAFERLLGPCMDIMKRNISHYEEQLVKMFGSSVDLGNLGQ

`Nc1nc2c(ncn2[C@@H]2O[C@@H]3COP(=O)(O)O[C@H]3[C@H]2O)c(=O)[nH]1` [cGMP, guanosine 3′, 5′cyclic monophosphate] was tested, and the “binding to regulatory subunits of PKA, affinity relative to cAMP” value [1] was “lower affinity than that of cAMP”.
`CCCOc1ccccc1-c1nc2nn[nH]c2c(=O)[nH]1` [Zaprinast] was tested, and the “relative light units as inhibitor amount increases (PDE V inhibition)” value (phosphodiesterase PDE V) was “relative light units decrease”.
For `Oc1cc2c(cc1O)C(c1ccccc1)CNCC2` (stereo not drawn) [SKF38393, 1-Phenyl-2,3,4,5-tetrahydro-(1H)-3-benzazepine-7,8-diol], the “luminescent signal as agonist concentration increases (DRD1 activation)” value [2] was “luminescent signal decreases”.
